The species named for test [1] is Homo sapiens. Nature of the test: Cytotoxicity against Homo sapiens (human) HepG2(2.2.1) cells assessed as growth inhibition at 20 uM after 24 to 72 hr by WST-8 assay. In kind it is functional, cell-based.
For test [2], the species on record is Homo sapiens. As to the kind of experiment: Cytotoxicity against Homo sapiens (human) HepG2(2.2.1) cells assessed as growth inhibition at 10 uM after 24 to 72 hr by WST-8 assay. Type of test: functional, cell-based.
Test [3] is filed under the species Homo sapiens. Nature of the test: Cytotoxicity against Homo sapiens (human) HepG2(2.2.1) cells assessed as growth inhibition at 15 uM after 24 to 72 hr by WST-8 assay. In kind it is functional, cell-based.
Test [4] in a line: Downregulation of CDK1 expression in Homo sapiens (human) HepG2(2.2.1) cells at 500 nM after 24 hr by Western blot analysis. In kind it is functional.
A short description of test [5]: Downregulation of CDK4 expression in Homo sapiens (human) HepG2(2.2.1) cells at 500 nM after 24 hr by Western blot analysis. Type of test: functional.
Test [6] concerns the target Cyclin-dependent kinase 4 (Homo sapiens) (UniProt P11802). As to the kind of experiment: Inhibition of CDK4 in Homo sapiens (human) HepG2(2.2.1) cells assessed as downregulation of XIAP expression at 500 nM after 24 hr by Western blot analysis.
The species entered for test [7] is Homo sapiens. As to the kind of experiment: Cytotoxicity against Homo sapiens (human) HepG2(2.2.1) cells assessed as growth inhibition at 75 nM after 24 to 72 hr by WST-8 assay in presence of 15 uM XIAP inhibitor embelin. In kind it is functional, cell-based.
Test [8] is filed under the species Homo sapiens. As to the kind of experiment: Cytotoxicity against Homo sapiens (human) HepG2(2.2.1) cells assessed as growth inhibition at 50 nM after 24 to 72 hr by WST-8 assay in presence of 10 uM XIAP inhibitor embelin. In kind it is functional, cell-based.
Test [9] can be described thus: Cell cycle arrest in Homo sapiens (human) HepG2(2.2.1) cells assessed as accumulation at G2 phase at 500 nM after 24 hr by propidium iodide staining-based flow cytometric analysis (reference value: 24.38 +/- 2.02 %). Type of test: functional.
Test [10] can be described thus: Downregulation of XIAP expression in Homo sapiens (human) HepG2(2.2.1) cells at 500 nM after 24 hr by Western blot analysis. In kind it is functional.
The species named for test [11] is Homo sapiens. Nature of the test: (§1) Cytotoxicity against Homo sapiens (human) HepG2(2.2.1) cells assessed as growth inhibition after 24 to 72 hr by WST-8 assay. Type of test: functional, cell-based.
Test [12] is described as follows: as §1. Type of test: functional, cell-based.
Test [13] in a line: Downregulation of CDK6 expression in Homo sapiens (human) HepG2(2.2.1) cells at 500 nM after 24 hr by Western blot analysis. In kind it is functional.
Test [14] is filed under the species Homo sapiens. As to the kind of experiment: Cytotoxicity against Homo sapiens (human) HepG2(2.2.1) cells assessed as growth inhibition at 100 nM after 24 to 72 hr by WST-8 assay in presence of 75 uM XIAP inhibitor embelin. In kind it is functional, cell-based.
A short description of test [15]: Cell cycle arrest in Homo sapiens (human) HepG2(2.2.1) cells assessed as accumulation at G2 phase at 300 nM after 24 hr by propidium iodide staining-based flow cytometric analysis (reference value: 24.38 +/- 2.02 %). In kind it is functional.
Test [16] is described as follows: Cell cycle arrest in Homo sapiens (human) HepG2(2.2.1) cells assessed as accumulation at G1 phase at 100 nM after 24 hr by propidium iodide staining-based flow cytometric analysis (reference value: 53.07 +/- 3.01 %). In kind it is functional.
Test [17] in a line: Induction of apoptosis in Homo sapiens (human) HepG2(2.2.1) cells at 500 nM after 24 hr by annexin V-FITC/propidium iodide staining-based flow cytometric analysis (reference value: 2.20%). In kind it is functional.
Test [18] is filed under the species Homo sapiens. Nature of the test: Cytotoxicity against Homo sapiens (human) HepG2(2.2.1) cells assessed as growth inhibition at 75 nM after 24 to 72 hr by WST-8 assay. In kind it is functional, cell-based.
For test [19], the species on record is Homo sapiens. Nature of the test: Cytotoxicity against Homo sapiens (human) HepG2(2.2.1) cells assessed as growth inhibition at 100 nM after 24 to 72 hr by WST-8 assay. In kind it is functional, cell-based.
A short description of test [20]: Cell cycle arrest in Homo sapiens (human) HepG2(2.2.1) cells assessed as accumulation at G1 phase at 500 nM after 24 hr by propidium iodide staining-based flow cytometric analysis (reference value: 53.07 +/- 3.01 %). Type of test: functional.
For test [21], the target named is Cyclin-dependent kinase 6 (Homo sapiens) (UniProt Q00534). As to the kind of experiment: Inhibition of CDK6 in Homo sapiens (human) HepG2(2.2.1) cells assessed as downregulation of XIAP expression at 500 nM after 24 hr by Western blot analysis.
Test [22] can be described thus: Downregulation of CDK2 expression in Homo sapiens (human) HepG2(2.2.1) cells at 500 nM after 24 hr by Western blot analysis. In kind it is functional.
Test [23] in a line: Cell cycle arrest in Homo sapiens (human) HepG2(2.2.1) cells assessed as accumulation at S phase at 100 nM after 24 hr by propidium iodide staining-based flow cytometric analysis (reference value: 22.55 +/- 2.98 %). Type of test: functional.
Test [24] in a line: Cell cycle arrest in Homo sapiens (human) HepG2(2.2.1) cells assessed as accumulation at S phase at 300 nM after 24 hr by propidium iodide staining-based flow cytometric analysis (reference value: 22.55 +/- 2.98 %). In kind it is functional.
A short description of test [25]: Cell cycle arrest in Homo sapiens (human) HepG2(2.2.1) cells assessed as accumulation at G2 phase at 100 nM after 24 hr by propidium iodide staining-based flow cytometric analysis (reference value: 24.38 +/- 2.02 %). Type of test: functional.
Test [26] in a line: Cell cycle arrest in Homo sapiens (human) HepG2(2.2.1) cells assessed as accumulation at G1 phase at 300 nM after 24 hr by propidium iodide staining-based flow cytometric analysis (reference value: 53.07 +/- 3.01 %). In kind it is functional.
Test [27] can be described thus: Downregulation of cyclin D1 expression in Homo sapiens (human) HepG2(2.2.1) cells at 500 nM after 24 hr by Western blot analysis. In kind it is functional.
The species named for test [28] is Homo sapiens. As to the kind of experiment: Cytotoxicity against Homo sapiens (human) HepG2(2.2.1) cells assessed as growth inhibition at 50 nM after 24 to 72 hr by WST-8 assay. Type of test: functional, cell-based.
The nature of test [29]: Cell cycle arrest in Homo sapiens (human) HepG2(2.2.1) cells assessed as accumulation at S phase at 500 nM after 24 hr by propidium iodide staining-based flow cytometric analysis (reference value: 22.55 +/- 2.98 %). In kind it is functional.
Test [30] concerns the target G1/S-specific cyclin-D1 (Homo sapiens) (UniProt P24385). Nature of the test: Inhibition of cyclin D1 in Homo sapiens (human) HepG2(2.2.1) cells assessed as downregulation of XIAP expression at 500 nM after 24 hr by Western blot analysis.
Test [31] can be described thus: Downregulation of XIAP expression in Homo sapiens (human) HepG2(2.2.1) cells after 24 hr by Western blot analysis. In kind it is functional.

Calls of active or inactive are those of the source. The rule behind the calls is not given here.

Sequence of Cyclin-dependent kinase 6 (Homo sapiens) (Q00534 whole entry): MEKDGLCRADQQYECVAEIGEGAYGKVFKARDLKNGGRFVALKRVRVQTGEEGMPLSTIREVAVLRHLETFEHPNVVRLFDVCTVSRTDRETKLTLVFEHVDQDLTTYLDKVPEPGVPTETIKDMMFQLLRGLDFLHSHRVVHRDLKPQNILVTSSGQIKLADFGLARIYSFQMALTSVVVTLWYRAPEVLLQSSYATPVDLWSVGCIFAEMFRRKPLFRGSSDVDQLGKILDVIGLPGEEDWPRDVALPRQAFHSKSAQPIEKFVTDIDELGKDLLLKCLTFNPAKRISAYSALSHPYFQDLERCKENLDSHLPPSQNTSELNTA
Sequence of Cyclin-dependent kinase 4 (Homo sapiens) (P11802 whole entry): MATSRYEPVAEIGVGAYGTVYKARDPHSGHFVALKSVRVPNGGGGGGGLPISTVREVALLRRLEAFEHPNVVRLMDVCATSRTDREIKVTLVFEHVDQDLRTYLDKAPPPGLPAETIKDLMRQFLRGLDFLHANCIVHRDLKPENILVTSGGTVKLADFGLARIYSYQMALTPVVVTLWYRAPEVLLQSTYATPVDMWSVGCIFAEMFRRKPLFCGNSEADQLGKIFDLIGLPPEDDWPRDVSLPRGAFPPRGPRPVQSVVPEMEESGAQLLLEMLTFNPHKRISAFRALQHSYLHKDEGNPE
Sequence of G1/S-specific cyclin-D1 (Homo sapiens) (P24385 whole entry): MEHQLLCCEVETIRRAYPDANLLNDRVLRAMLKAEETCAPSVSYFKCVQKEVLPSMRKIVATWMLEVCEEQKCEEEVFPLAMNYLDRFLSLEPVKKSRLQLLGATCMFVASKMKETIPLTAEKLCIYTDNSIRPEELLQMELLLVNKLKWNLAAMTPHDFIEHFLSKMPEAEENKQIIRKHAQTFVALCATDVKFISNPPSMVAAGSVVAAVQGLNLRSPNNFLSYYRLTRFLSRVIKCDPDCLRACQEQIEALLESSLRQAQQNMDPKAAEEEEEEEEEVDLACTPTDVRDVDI

For the compound `CCCCCCCCCCCC1=C(O)C(=O)C=C(O)C1=O`, the “growth inhibition (GI)” value in test [1], in test [2] and in test [3] was “Active” throughout.
For the compound `CN1CC[C@H](c2c(O)cc(O)c3c(=O)cc(-c4ccccc4Cl)oc23)[C@H](O)C1` [ALVOCIDIB], the outcome in [4] and in [22] was inactive. Besides, the result in [5], in test [10], in [13] and in test [27] was Active. Further, the inhibition entry in [6], in [21] and in test [30] was “Active” each time. Further, the “growth inhibition (GI)” value in [7], in test [8], in [14], in test [18], in [19] and in test [28] was “Active” each time. Further, the Activity in test [9] amounted to 20.9%; in [15] it was 15.7%; in [16] it was 54.6%; in test [17] it was 14.28%; in test [20], 57.9%; in test [23] it was 22.2%. Further, the Activity in [24] is 27.9%; in [25], 23.2%; in test [26], 56.4%; in test [29] it was 21.2%; in [31], “Dose-dependent effect”. Further, the “growth inhibition (GI)” value in [11] was “Dose-dependent effect”. Besides, in test [12], the concentration for half-maximal inhibition (IC50) was found to be 0.2 µM.
